Counter-ions that a name gives are not always drawn.
Test system: kidney
Assay: Transcriptional profiling on Affymetrix GeneChips, single dose, naïve mice: kidney
Assay type: in vivo, C57BL/6 mice
Details: 100MMF-vs-Veh
Method: Treated mice were sacrificed at 2, 7, or 12 hours. Tissues (liver, spleen, kidney, jejunum, cortex, hippocampus, striatum and whole blood) were collected and analyzed by transcriptional profiling on mouse Affymetrix GeneChips.
Tissues (liver, spleen, kidney, jejunum, cortex, hippocampus, striatum and whole blood) were collected and analyzed by transcriptional profiling on mouse Affymetrix GeneChips.
Animals were exposed to CO2 and whole blood collected via cardiac puncture. Two 100 μl aliquots of whole blood were collected in 1.5 mL microcentrifuge tubes and snap frozen in liquid nitrogen. Peripheral (liver, spleen, kidney and jejunum) and CNS brain (cerebellum, hippocampus, striatum and cortex) tissues were harvested and snap frozen in liquid nitrogen, with special care taken to collect tissues of similar size and from the same location. All samples were stored at −80° C. until RNA extraction was conducted.
For RNA preparation, frozen tissues were placed in 2 mL RNAse-free 96-well blocks with 1.5 mL QIAzol Lysis Reagent (QIAgen) and a 3.2 mm stainless steel bead (BioSpec Products, Bartlesville, Okla.). Tissues were disrupted for four cycles of 45 seconds in a Mini-Beadbeater (Biospec Products). RNA was extracted in chloroform and the aqueous phase was mixed with an equal volume of 70% ethanol. Extracted RNA was applied to RNeasy 96 plates and purified by the spin method according to the manufacturer's protocol (RNeasy 96 Universal Tissue Protocol, QIAgen, Hilden Germany).
Automated sample amplifications and biotin labelings were carried out using the NuGEN Ovation RNA Amplification system V2 (Cat #3100), Ovation WB reagent (Cat #1300) and Encore Biotin module (Cat #4200) (NuGEN Technologies, Inc, San Carlos, Calif.) according to manufacturer's recommendations using an Arrayplex automated liquid handler (Beckman Coulter, Indianapolis, Ind.). Two micrograms of biotin labeled sscDNA probe were hybridized to Affymetrix GeneChip Affymetrix HT_MG-430_PM plate arrays with modified conditions as described in Allaire et al. Washing and staining of the hybridized arrays were completed as described in the GeneChip Expression analysis technical manual for HT plate arrays using the Genechip® Array Station (Affymetrix, Santa Clara, Calif.) with modifications as described in Allaire et al. The processed GeneChip® plate arrays were scanned using GeneTitan scanner (Affymetrix, Santa Clara, Calif.).
Affymetrix scans were subject to quality control (QC) measures. These tests included a visual inspection of the distribution of raw signal intensities and an assessment of RNA degradation, relative log expression (RLE), and normalized unsealed standard error (NUSE). All sample scans that passed these QC metrics were included in the analysis.
All CEL files were subjected to GC-content-based Robust Multi-array Average (GCRMA) normalization (version 2.20.0) (Irizarry R A, et al. Nucleic Acids Res 2003; 31:e15; Li C, et al. Genome Biol 2001; 2:[…]0032). Expression levels were log (base 2) transformed.
All calculations and analyses were carried out using R (version 2.11.1) and Bioconductor computational tools (Gentleman R. Springer Science+Business Media 2005).

## COC(=O)/C=C/C(=O)O [MMF, monomethyl fumarate]
7 h
  FC Gsr (1421816_PM_at): 1.83
  FC Gsta3 (1423436_PM_at): 1.99
  FC Gsta3 (1423437_PM_at): 2.95
  FC Gsta4 1416368_PM_at: 1.85
  FC Havcr1 1434716_PM_at: 3.22
  FC Hfe 1450702_PM_at: 1.57
  FC Hist1h2be 1440330_PM_at: 1.98
  FC Hist2h3c1 1442051_PM_at: 1.65
  FC Hmox1 1448239_PM_at: 7.48
  FC Hsp90aa1 1426645_PM_at: 1.50
  FC Ido2 1425778_PM_at: −1.52
  FC Ikbkg 1421209_PM_s_at: 1.77
  FC Ikbkg 1435646_PM_at: 1.80
  FC Ikbkg 1454690_PM_at: 1.61
  FC Il18 1417932_PM_at: −1.52
  FC Kif20b 1439695_PM_a_at: −2.61
  FC Lcp1 1415983_PM_at: 1.59
  FC Lcp1 1448160_PM_at: 1.56
  FC Lpar2 1442291_PM_at: 1.84
  FC Lrp8 (1440882_PM_at): 2.19
  FC Mctp2 1457707_PM_at: 1.54
  FC Mfsd2a 1428223_PM_at: −3.38
  FC Mt1 1422557_PM_s_at: 1.89
  FC Mt2 1428942_PM_at: 2.71
  FC Mthfd2 1419253_PM_at: 1.89
  FC Mthfd2 1419254_PM_at: 1.68
  FC Napsa 1430744_PM_at: −1.79
  FC Ndrg1 1423413_PM_at: 1.52
  FC Ndrg1 1450977_PM_s_at: 1.54
  FC Nmral1 1430530_PM_s_at: −1.52
  FC Nqo1 (1423627_PM_at): 1.96
  FC Nrg1 1456524_PM_at: 1.81
  FC Nudt11 1426887_PM_at: 1.62
  FC Pank1 1457110_PM_at: −1.79
  FC Pank2 1452733_PM_at: −1.94
  FC Pard3 1434775_PM_at: 1.53
  FC Pfkfb4 1456888_PM_at: 1.69
  FC Pgd 1423706_PM_a_at: 2.21
  FC Pgd 1438627_PM_x_at: 1.78
  FC Pgd (1436771_PM_x_at): 1.87
  FC Pgd (1437380_PM_x_at): 1.87
  FC Pir (1429001_PM_at): 2.63
  FC Ppm1e 1434990_PM_at: −1.53
  FC Rab38 1417700_PM_at: −1.57
  FC Rassf6 1429262_PM_at: 1.65
  FC Rdh10 1460632_PM_at: 1.68
  FC Rhof 1455902_PM_x_at: 1.66
  FC Rnf24 1436101_PM_at: −2.03
  FC Rock2 1451041_PM_at: 1.60
  FC Rundc3b 1434456_PM_at: 1.54
  FC Sema3c 1420696_PM_at: 1.66
  FC Slc7a1 1454992_PM_at: 1.62
  FC Slc9a8 1454865_PM_at: −1.68
  FC Slc16a6 1417884_PM_at: 1.55
  FC Slc20a1 1448568_PM_a_at: 1.70
  FC Slc40a1 1448566_PM_at: 1.51
  FC Slc48a1 1450410_PM_a_at: 1.58
  FC Smcp 1418358_PM_at: −1.96
  FC Sphk2 1426230_PM_at: −1.54
  FC Sqstm1 1450957_PM_a_at: 1.62
  FC Srxn1 (1419942_PM_at): 2.45
  FC Srxn1 (1425351_PM_at): 2.92
  FC Srxn1 (1426875_PM_s_at): 2.29
  FC Srxn1 (1451680_PM_at): 2.68
  FC Syn3 1435311_PM_s_at: −1.68
  FC Tardbp 1423723_PM_s_at: 1.62
  FC Tcte2 1425009_PM_at: −1.61
  FC Tiam2 1423186_PM_at: 2.27
  FC Tmem86a 1428758_PM_at: −1.56
  FC Tnfrsf12a 1418571_PM_at: 2.40
  FC Tnfrsf12a 1418572_PM_x_at: 2.45
  FC Trim7 1425743_PM_at: −1.59
  FC Trim7 1439352_PM_at: −1.55
  FC Tubb2a 1427347_PM_s_at: 1.52
  FC Txnrd1 1421529_PM_a_at: 1.72
  FC Txnrd1 (1424486_PM_a_at): 3.08
  FC Txnrd1 (1424487_PM_x_at): 2.37
  FC Upp2 1424969_PM_s_at: −3.63
  FC Upp2 1451548_PM_at: −4.00
  FC Uxs1 1426275_PM_a_at: 1.50
  FC Vwa1 1426399_PM_at: −1.69
  FC Wdr90 1426767_PM_at: −1.58
  FC Wnt5a 1436791_PM_at: 1.69
  FC Wnt5a 1448818_PM_at: 1.81
12 h
  FC Acot1 /// Acot2 1422997_PM_s_at: 1.51
  FC Aldh1a1 1416468_PM_at: 2.21
  FC Aldh1a7 (1418601_PM_at): 3.02
  FC Aox1 (1419435_PM_at): 2.23
  FC Arg2 1418847_PM_at: 2.70
  FC Atp11a 1421167_PM_at: −1.62
  FC C1qtnf3 1422606_PM_at: −1.57
  FC Cyp51 1422533_PM_at: −1.95
  FC Cyp51 1422534_PM_at: −1.79
  FC Egln3 1418649_PM_at: 1.71
  FC G6pd2 /// G6pdx 1422327_PM_s_at: 1.91
  FC Gbe1 1420654_PM_a_at: 1.51
  FC Gdf15 1418949_PM_at: 2.01
  FC Gm3776 /// Gsta1 /// Gsta2 1421041_PM_s_at: 1.68
  FC Gpr19 1421756_PM_a_at: 1.50
  FC Gsta2 (1421040_PM_a_at): 1.61
  FC Gsta3 (1423436_PM_at): 1.95
  FC Gsta3 (1423437_PM_at): 2.85
  FC Gsta4 1416368_PM_at: 1.95

From US20160115540A1, “PRODRUGS AND DRUGS” (Biogen MA Inc., priority 2013, published 2016)
